Measured values as given in PMC10657444, “Design and evaluation of tadpole-like conformational antimicrobial peptides” (Communications Biology, 2023).
Converted amounts (≈) assume the structure as drawn. Like-named read-outs stand apart in the source and are kept apart here. Residues, ends and D or L forms follow the SMILES beside them.

Tests used:
A. baumannii 1337 = type: cell-based, Acinetobacter baumannii
Source text: (§1) Bacteria were cultivated in Luria-Bertani (LB) broth.

A. baumannii 1318 = type: cell-based, Acinetobacter baumannii
Source text: as §1

MRSA ATCC 43300 = type: cell-based, Staphylococcus aureus
Source text: as §1

MRSA USA 300 = type: cell-based, Staphylococcus aureus
Source text: as §1

MRSA 3393 = type: cell-based, Staphylococcus aureus
Source text: as §1

MRSA = type: cell-based, Staphylococcus aureus
Source text: as §1

E. coli S = type: cell-based, Escherichia coli
Source text: as §1

E. coli ATCC 25922 = type: cell-based, Escherichia coli
Source text: as §1

[1] = test system: K. pneumoniae ATCC 700603; type: cell-based, Klebsiella pneumoniae
Source text: as §1

K. pneumoniae 3026 = type: cell-based, Klebsiella pneumoniae
Source text: as §1

sheep red blood cells = experiment: Hemolysis assay; settings: red cells of sheep, 1 h
Experimental: To evaluate the hemolysis effects of peptides, red blood hemolysis was performed as described with minimum modifications. Sterile defibrated sheep blood was purchased from Guangzhou Hongquan Biotechnology Co., LTD. Blood cells were adjusted to 2 × 10^9 cells/mL in phosphate-buffered saline (PBS, pH 7.4). In total, 98 μL sheep red blood cell suspension was incubated with 2 μL of peptides at different concentrations ranging from 3.13 to 100 µM. After incubation for 1 h at 37 °C, the cells were centrifuged and the absorbance of the supernatant was measured at 450 nm. The value for “zero hemolysis” was determined using sterile PBS, while 100% hemolysis was established using 1.5% (v/v) Triton X-100. Hemolysis of testing sample was calculated as the percentage of Triton X-100-induced hemolysis.

HEK293T cells = experiment: MTT cytotoxicity assay; type: cell-based, human
Experimental: (§2) To determine the cytotoxicity of the peptides, we used the MTT (3-(4,5)-dimethylthiahiazo (-z-y1)-3,5-di-phenytetrazoliumromide) dye reduction assay against HEK293T cells. In brief, the 100 μL of cells in 96-well plate were incubated for 24 h at 37 °C, 5% CO2, and then peptide solutions (concentrations ranging from 100 to 0.39 μM) were added and further incubated for 72 h. MTT solution (5 mg/mL) was added and further incubated for 4 h. After incubation, the precipitated MTT formazan crystal was dissolved by addition of dimethyl sulfoxide (DMSO). […]

MTT cytotoxicity assay = type: cell-based, human; settings: human
Experimental: as §2

[2] = test system: Gram-negative bacterial strains; type: cell-based
Source text: as §1

[3] = HEK293T cells, OD450, cytotoxicity (Fig 2a), replicates

Row | SMILES | MIC Gram- A. b 1337 (A. baumannii 1337) | MIC Gram- A. b 1318 (A. baumannii 1318) | MIC Gram+ MRSA ATCC 43300 (MRSA ATCC 43300; ATCC 43300) | MIC Gram+ MRSA USA 300 (MRSA USA 300) | MIC Gram+ MRSA 3393 (MRSA 3393; 3393) | MICs against MRSA (MRSA) | MIC Gram- E. coli S (E. coli S) | MIC Gram- E. coli ATCC 25922 (E. coli ATCC 25922) | MIC Gram- K. p ATCC 700603 [1] | MIC Gram- K. p 3026 (K. pneumoniae 3026) | other results
1 | CC[C@H](C)[C@H](NC(=O)[C@H](CCCNC(=N)N)NC(=O)[C@H](CO)NC(=O)[C@H](CC(C)C)NC(=O)[C@H](Cc1ccccc1)NC(=O)[C@H](Cc1ccccc1)NC(=O)[C@H](Cc1ccccc1)NC(=O)[C@H](Cc1ccc(O)cc1)NC(=O)[C@@H](N)Cc1ccc(O)cc1)C(=O)N[C@@H](Cc1ccccc1)C(N)=O [YY-SHf] (H-YYFFFLSRIF-NH2; N-terminus assumed) | > 100 µM | > 100 µM | 6.25 µM (≈ 8.76 µg/mL) | 6.25 µM (≈ 8.76 µg/mL) | 50 µM (≈ 70.1 µg/mL) | 3.13 to 50 µM | > 100 µM | > 100 µM | > 100 µM | > 100 µM | –
2 | CC[C@H](C)[C@H](NC(=O)[C@H](CCCNC(=N)N)NC(=O)[C@H](CO)NC(=O)[C@H](CC(C)C)NC(=O)[C@H](Cc1ccccc1)NC(=O)[C@H](Cc1ccccc1)NC(=O)[C@H](Cc1ccccc1)NC(=O)[C@H](Cc1ccccc1)NC(=O)[C@@H](N)Cc1ccccc1)C(=O)N[C@@H](Cc1ccccc1)C(N)=O [FF-SHf] (H-FFFFFLSRIF-NH2; N-terminus assumed) | > 100 µM | > 100 µM | 50 µM (≈ 68.5 µg/mL) | 6.25 µM (≈ 8.56 µg/mL) | 3.13 µM (≈ 4.29 µg/mL) | 3.13 to 50 µM | > 100 µM | > 100 µM | > 100 µM | > 100 µM | –
3 | CC[C@H](C)[C@H](NC(=O)[C@H](CCCNC(=N)N)NC(=O)[C@H](CCCNC(=N)N)NC(=O)[C@H](CC(C)C)NC(=O)[C@H](Cc1ccccc1)NC(=O)[C@H](Cc1ccccc1)NC(=O)[C@H](Cc1ccccc1)NC(=O)[C@@H](N)Cc1ccccc1)C(=O)N[C@@H](Cc1ccccc1)C(=O)N[C@@H](CCCNC(=N)N)C(N)=O [F-SHf(R^5)-R] (H-FFFFLRRIFR-NH2; N-terminus assumed) | 12.5 µM (≈ 18.1 µg/mL) | 12.5 µM (≈ 18.1 µg/mL) | 1.57 µM (≈ 2.27 µg/mL) | 1.57 µM (≈ 2.27 µg/mL) | – | – | 12.5 µM (≈ 18.1 µg/mL) | 6.25 µM (≈ 9.05 µg/mL) | 12.5 µM (≈ 18.1 µg/mL) | 25 µM (≈ 36.2 µg/mL) | HC10 (concentration inducing 10% hemolysis) (sheep red blood cells): 36.5 µM; toxicity / cytotoxicity against HEK293T cells (in words) (HEK293T cells): high toxicity; IC50 at 72 h (MTT cytotoxicity assay): 0.2 µM; viability at 72 h, 0.39 µM (MTT cytotoxicity assay; [3]): 35.2%; viability at 72 h, 0.78 µM (MTT cytotoxicity assay; [3]): 26.2%; viability at 72 h, 1.57 µM (MTT cytotoxicity assay; [3]): 12.3%; viability at 72 h, 3.13 µM (MTT cytotoxicity assay; [3]): 9.86%; viability at 72 h, 6.25 µM (MTT cytotoxicity assay; [3]): 4.46%; viability at 72 h, 12.5 µM (MTT cytotoxicity assay; [3]): 3.13%; viability at 72 h, 25 µM (MTT cytotoxicity assay; [3]): 3.84%; viability at 72 h, 50 µM (MTT cytotoxicity assay; [3]): 2.63%; viability at 72 h, 100 µM (MTT cytotoxicity assay; [3]): 1.58%; MIC Gram+ MRSA ATCC 43300 (MRSA ATCC 43300): 1.57 µM (≈ 2.27 µg/mL); MIC Gram+ MRSA 3393 (MRSA 3393): 1.57 µM (≈ 2.27 µg/mL); MICs against the tested Gram-negative bacterial strains [2]: 6.25 to 25 µM
